{"source": "paper PMC8406801", "about": "“Naringenin Inhibits Platelet Activation and Arterial Thrombosis Through Inhibition of Phosphoinositide 3-Kinase and Cyclic Nucleotide Signaling” (Frontiers in Pharmacology, 2021)", "type_in_all_cases": "cell-based, rat", "key": {"[1]": {"tested_on": "VASP Ser157 phosphorylation", "assay": "Immunoblotting of phospho-VASP (Ser157) in ADP-stimulated washed platelets", "settings": "for p-VASP(Ser157) / GAPDH (Fold to ADP only) / p-VASP(Ser157) / GAPDH (raw data): ADP-stimulated, Figure 7B", "procedure": "For in vitro platelet aggregation, aliquots of washed platelets were preincubated with vehicle or various concentrations of naringenin for 5 min and stimulated with ADP (10 μmol/L) under stirring at 37°C for 5 min. For ex vivo platelet aggregation, PRP was incubated at 37°C for 5 min and stimulated with ADP (5 μmol/L) under stirring at 37 °C. The platelet aggregation was terminated by adding ethylenediaminetetraacetic acid (EDTA; 10 mM). Total protein was prepared using RIPA lysis buffer and protein content was determined by bicinchoninic acid (BCA) protein assay kit. Equal amounts of platelet proteins (30 μg) were separated on 10% SDS polyacrylamide gel electrophoresis (SDS-PAGE) and then transferred to poly vinylidene difluoride (PVDF) membranes and subjected to western blot. Blots were blocked with TBS-Tween 20 containing 5% BSA and probed with primary antibodies diluted in blocking solution at 4°C overnight followed by incubation with the corresponding HRP secondary antibodies. The protein bands were visualized using enhanced chemiluminescence (ECL).\nVASP is a substrate for cAMP- and cGMP- dependent protein kinases, which mediate cAMP- and cGMP-dependent inhibitory signaling in platelets, respectively. Increased cAMP levels followed by the activation of cAMP-dependent protein kinase A (PKA) phosphorylates VASP at position Ser157, whereas the elevation of cGMP leads to VASP phosphorylation at position Ser239 by cGMP-dependent protein kinase G (PKG) ([Aszódi et al., 1999]; [Li et al., 2003a]). To further examine whether naringenin modulates cAMP- or cGMP-mediated inhibitory signaling, the phosphorylation of VASP (Ser157 and Ser239) in washed platelets on stimulation with ADP were measured in the absence or presence of naringenin (100, 200, 400, and 800 μM). […] To further confirm the antiplatelet effects of naringenin through PKA-dependent signaling, the effects of naringenin on platelet aggregation were measured in the presence of PKG inhibitor (Rp-8-Br-PET-cGMPS) and PKA inhibitor (H89).\nFIGURE 7 Naringenin promotes VASP phosphorylation. The effects of naringenin on phosphorylation of VASP (at positions Ser 157 and Ser239) were measured in washed platelets upon stimulation with ADP (10 μmol/L) by western blotting (A). The blots shown are representative of three separate experiments. The phosphorylation levels were quantified by ImageJ 1.47v software. The level of phosphorylation obtained with vehicle control (0 μM) was taken as 1 (B,C). R represents the phosphorylation level in resting platelets. Data are expressed as means ± SD (n = 3). *p < 0.05, ***p < 0.001 compared with the vehicle control group. VASP phosphorylation at Ser239 was also analyzed in washed platelets incubated with 5 μmol/L PKA (H89), 30 μmol/L PKG (Rp-8-Br-PET-cGMPS), or 5 μmol/L PKC (GF109203X) inhibitors before treatment with naringenin (D). Washed platelets were incubated with vehicle or naringenin (200 μmol/L) at 37°C in the presence or absence of 5 μmol/L PKA (H89) or 30 μmol/L PKG (Rp-8-Br-PET-cGMPS) inhibitors. After treatment, platelets were stimulated with ADP (10 μmol/L) to trigger aggregation (E). Data are expressed as means ± SD (n = 6). ***p < 0.001 compared with the ADP-treated group, ^# p < 0.05, ^### p < 0.001 compared with naringenin alone or H89 alone."}, "PRP": {"tested_on": "PRP", "assay": "Clot retraction", "settings": "PRP, 200, 400, and 800 μM, thrombin 1 U/mL, 15 min", "procedure": "PRP was incubated with vehicle or different concentrations of naringenin for 10 min at 37°C. Clot retraction was initiated by adding fibrinogen (400 μg/ml) and thrombin (1 U/mL), and allowed to proceed at 37°C. Images were taken 15 min later."}, "cGMP": {"tested_on": "cGMP", "assay": "Measurement of cGMP in washed platelets (ELISA)", "settings": "single replicates", "procedure": "Washed platelets were preincubated with vehicle or various concentrations of naringenin in the presence of 2 mM CaCl2 at 37°C for 5 min and then stimulated with ADP (10 μM) for 5 min for platelet aggregation. The reaction was terminated by adding EDTA (10 mM). The platelets were boiled for 5 min at 100 °C followed by centrifugation at 13,000 × g for 5 min cAMP and cGMP levels in the supernatant were measured using cAMP or cGMP enzyme immunoassay kits (Cayman Chemicals, Ann Arbor, MI, United States).\nFIGURE 6 Naringenin elevates platelet cGMP levels and inhibits phosphodiesterase activity. The levels of cAMP (A) and cGMP (B) in washed platelets preincubated with vehicle or naringenin (100, 200, 400, and 800 μmol/L) were determined after stimulation with ADP (10 μmol/L) using ELISA kits. Similarly, the levels of cAMP (C) and cGMP (D) were determined in resting platelets incubated with naringenin (200, 400, and 800 μmol/L) or vehicle for 5 min. R represents the levels of cAMP or cGMP in resting platelets. Data are expressed as means ± SD (n = 4). *p < 0.05, ***p < 0.001 compared with the vehicle control group. The effects of naringenin on phosphodiesterase activity were measured by HPLC on the hydrolysis of cAMP (E) and cGMP (F). The level of phosphodiesterase activity obtained with vehicle control (0 μM) was taken as 100%. Data are expressed as means ± SD (n = 3). *p < 0.05, ***p < 0.001 compared with the vehicle control group."}, "[2]": {"tested_on": "P-selectin exposure on washed platelets", "assay": "ADP-stimulated P-selectin exposure (flow cytometry)", "settings": "ADP 10 μM; for P-selectin exposure: mean ± SD, n = 3, 86.06 ± 9.05% without naringenin; for P-selectin (%): single replicates", "procedure": "Flow cytometric assays were performed as described previously ([Wang et al., 2019]). ADP-stimulated P-selectin exposure and fibrinogen binding were determined in washed platelets. […] The platelets were immediately incubated with PE-labeled CD62P or FITC-labeled fibrinogen in the dark at room temperature for 15 min. The cells were finally fixed with 1% (v/v) paraformaldehyde prior to analysis using an Accuri C6 flow cytometer (BD Biosciences, United States)."}}, "note": "“And” between values parts separate entries of the source, which are not always exact repeats. Identical values can stand only once.", "data": [{"smiles": "O=C1C[C@@H](c2ccc(O)cc2)Oc2cc(O)cc(O)c21", "note": "[Naringenin]", "values": [{"measurement": "phosphorylation of VASP at Ser157", "setting": "[1]; ADP-stimulated washed platelets, 100, 200, 400, and 800 μM", "result": "did not significantly alter"}, {"measurement": "p-VASP(Ser157) / GAPDH (Fold to ADP only)", "setting": "[1]; naringenin 200 μM", "result": "1.6152 and 1.1716 and 1.5055"}, {"measurement": "p-VASP(Ser157) / GAPDH (raw data)", "setting": "[1]; naringenin 200 μM", "result": "0.7758 and 0.5628 and 0.7232"}, {"measurement": "p-VASP(Ser157) / GAPDH (Fold to ADP only)", "setting": "[1]; naringenin 400 μM", "result": "1.6752 and 1.3720 and 1.0597"}, {"measurement": "p-VASP(Ser157) / GAPDH (raw data)", "setting": "[1]; naringenin 400 μM", "result": "0.8047 and 0.6590 and 0.5090"}, {"measurement": "p-VASP(Ser157) / GAPDH (Fold to ADP only)", "setting": "[1]; naringenin 800 μM", "result": "1.6695 and 1.5145 and 1.3641"}, {"measurement": "p-VASP(Ser157) / GAPDH (raw data)", "setting": "[1]; naringenin 800 μM", "result": "0.8019 and 0.7275 and 0.6552"}, {"measurement": "clot retraction", "setting": "PRP", "result": "significantly reduced"}, {"measurement": "cGMP release", "setting": "cGMP; ADP 10 μmol/L-stimulated platelets, 100 μM", "result": "24.01 pmol/mL and 25.36 pmol/mL and 20.40 pmol/mL and 17.36 pmol/mL"}, {"measurement": "cGMP release", "setting": "cGMP; ADP 10 μmol/L-stimulated platelets, 200 μM", "result": "33.37 pmol/mL and 25.13 pmol/mL and 28.27 pmol/mL and 30.16 pmol/mL"}, {"measurement": "cGMP release", "setting": "cGMP; ADP 10 μmol/L-stimulated platelets, 400 μM", "result": "35.44 pmol/mL and 31.24 pmol/mL and 34.51 pmol/mL and 37.74 pmol/mL"}, {"measurement": "cGMP release", "setting": "cGMP; ADP 10 μmol/L-stimulated platelets, 800 μM", "result": "43.44 pmol/mL and 33.82 pmol/mL and 49.35 pmol/mL and 41.72 pmol/mL"}, {"measurement": "cGMP release", "setting": "cGMP; resting platelets, 200 μM, 5 min", "result": "32.45 pmol/mL and 25.29 pmol/mL and 28.34 pmol/mL and 23.70 pmol/mL"}, {"measurement": "cGMP release", "setting": "cGMP; resting platelets, 400 μM, 5 min", "result": "30.89 pmol/mL and 30.12 pmol/mL and 36.90 pmol/mL and 24.38 pmol/mL"}, {"measurement": "cGMP release", "setting": "cGMP; resting platelets, 800 μM, 5 min", "result": "36.72 pmol/mL and 44.35 pmol/mL and 55.79 pmol/mL and 49.00 pmol/mL"}, {"measurement": "P-selectin exposure", "setting": "[2]; 200 μM", "result": "58.33 ± 7.86", "unit": "%"}, {"measurement": "P-selectin (%)", "setting": "[2]; 200 μM", "result": "50.70% and 58.70% and 65.60%"}, {"measurement": "P-selectin exposure", "setting": "[2]; 400 μM", "result": "35.12 ± 11.91", "unit": "%"}, {"measurement": "P-selectin (%)", "setting": "[2]; 400 μM", "result": "22.54% and 46.23% and 36.58%"}, {"measurement": "P-selectin exposure", "setting": "[2]; 800 μM", "result": "31.56 ± 7.26", "unit": "%"}, {"measurement": "P-selectin (%)", "setting": "[2]; 800 μM", "result": "24.10% and 32.22% and 38.35%"}]}]}
